Data on 1 compound can be found in ChEMBL document CHEMBL5108052, “Histone Deacetylase and Enhancer of Zeste Homologue 2 Dual Inhibitors Presenting a Synergistic Effect for the Treatment of Hematological Malignancies” (J Med Chem, 2022).

The term pIC50 denotes −log10 of the IC50, conventionally taken in molar units.

pIC50: −log10 of the molar value.

In one series the target is Histone deacetylase 2 (Homo sapiens, UniProt Q92769). Briefly: Inhibition of full length recombinant human C-terminal GST-fusion-tagged human HDAC2 (1 to 488 residues) expressed in insect cells using RHK-K(Ac)-AMC as substrate incubated for 2 hrs by Multimode microplate reader analysis.
For the next series, the target named is T1, Histone deacetylase 8 (Homo sapiens, UniProt Q9BY41).
T1 sequence (Q9BY41 whole entry): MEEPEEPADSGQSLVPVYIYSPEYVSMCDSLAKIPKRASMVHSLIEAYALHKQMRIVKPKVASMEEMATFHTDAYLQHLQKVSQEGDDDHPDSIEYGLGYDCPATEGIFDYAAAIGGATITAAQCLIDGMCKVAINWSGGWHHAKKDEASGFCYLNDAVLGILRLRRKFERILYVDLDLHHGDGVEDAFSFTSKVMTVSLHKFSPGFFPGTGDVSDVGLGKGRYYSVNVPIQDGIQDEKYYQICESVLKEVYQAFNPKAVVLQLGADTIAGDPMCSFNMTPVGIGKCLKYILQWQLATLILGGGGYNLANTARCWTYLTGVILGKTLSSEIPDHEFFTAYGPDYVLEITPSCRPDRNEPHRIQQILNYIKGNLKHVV
Briefly: Inhibition of recombinant C-terminal His-fusion tagged/N-terminal Strep2 tagged human HDAC8 (1 to 377 residues) expressed in insect cells using RHK-K(Ac)-K(Ac)-AMC as substrate incubated for 2 hrs by Multimode microplate reader analysis.

The test system of series [1] is MV4-11. Nature of the series: Induction of apoptosis in human MV4-11 cells assessed as early apoptotic cells at 0.1 uM measured after 48 hrs by Annexin V/7-AAD-dual staining based flow cytometric analysis (reference value: 2.2 %). The series is classed as functional. (In flow cytometry, cells or beads pass a laser one at a time.)
Series [2] relates to MV4-11. Briefly: Induction of apoptosis in human MV4-11 cells assessed as necrotic cells at 0.4 uM measured after 48 hrs by Annexin V/7-AAD-dual staining based flow cytometric analysis (reference value: 0.3 %). The series is classed as functional.
In another series the target is Histone deacetylase 4 (Homo sapiens, UniProt P56524). Briefly: Inhibition of N-terminal GST-tagged/C-terminal His-tagged human HDAC4 (627 to 1084 residues) expressed in baculovirus expression system using trifluoroacetyl lysine as substrate incubated for 2 hrs by Multimode microplate reader analysis.
Series [3] has as its target T2, Protein deacetylase HDAC6 (Homo sapiens, UniProt Q9UBN7).
T2 sequence (Q9UBN7 whole entry): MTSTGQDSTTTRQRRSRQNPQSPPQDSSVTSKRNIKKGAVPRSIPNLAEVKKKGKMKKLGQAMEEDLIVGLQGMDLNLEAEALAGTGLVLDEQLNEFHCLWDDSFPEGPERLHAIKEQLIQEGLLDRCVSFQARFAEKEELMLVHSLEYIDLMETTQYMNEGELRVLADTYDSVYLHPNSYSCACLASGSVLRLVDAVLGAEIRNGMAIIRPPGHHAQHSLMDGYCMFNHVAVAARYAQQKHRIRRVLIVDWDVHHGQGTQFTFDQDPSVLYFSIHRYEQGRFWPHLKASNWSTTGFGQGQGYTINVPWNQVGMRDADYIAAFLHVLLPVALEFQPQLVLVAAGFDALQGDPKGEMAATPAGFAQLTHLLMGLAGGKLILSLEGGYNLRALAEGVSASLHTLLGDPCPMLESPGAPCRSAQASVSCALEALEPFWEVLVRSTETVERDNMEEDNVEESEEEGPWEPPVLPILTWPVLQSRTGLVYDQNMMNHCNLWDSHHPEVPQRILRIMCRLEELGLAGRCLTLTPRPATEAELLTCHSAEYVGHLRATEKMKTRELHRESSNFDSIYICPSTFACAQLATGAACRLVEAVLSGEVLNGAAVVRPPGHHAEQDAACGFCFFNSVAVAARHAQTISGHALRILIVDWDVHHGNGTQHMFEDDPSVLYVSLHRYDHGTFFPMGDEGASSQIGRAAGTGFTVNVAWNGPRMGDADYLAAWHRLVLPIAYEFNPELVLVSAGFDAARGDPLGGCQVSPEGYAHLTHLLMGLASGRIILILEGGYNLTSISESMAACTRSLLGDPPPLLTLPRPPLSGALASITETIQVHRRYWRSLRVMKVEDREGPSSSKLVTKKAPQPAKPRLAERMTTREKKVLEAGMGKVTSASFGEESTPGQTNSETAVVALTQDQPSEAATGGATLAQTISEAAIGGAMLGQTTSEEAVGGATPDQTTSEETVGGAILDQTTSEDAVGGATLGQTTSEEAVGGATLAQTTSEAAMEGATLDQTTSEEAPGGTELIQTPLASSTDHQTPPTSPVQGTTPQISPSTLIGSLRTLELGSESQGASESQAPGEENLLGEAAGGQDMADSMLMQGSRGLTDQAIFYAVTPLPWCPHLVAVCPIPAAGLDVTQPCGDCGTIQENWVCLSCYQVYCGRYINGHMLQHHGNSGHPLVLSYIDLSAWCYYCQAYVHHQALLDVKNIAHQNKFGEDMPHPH
Briefly: Inhibition of full length recombinant N-terminal GST-tagged human HDAC6 (1 to 1215 residues) expressed in baculovirus infected insect cells incubated for 2 hrs by Multimode microplate reader analysis.

The target in a further series is Histone deacetylase 9 (Homo sapiens, UniProt Q9UKV0). Briefly: Inhibition of HDAC9 (unknown origin) incubated for 2 hrs by Multimode microplate reader analysis.
The next series relates to L02. Briefly: Cytotoxicity against human L02 cells assessed as increase in combination index measured after 72 hrs by CCK-8 assay. The series is classed as toxicity, cell-based. Particulars: l02, 72 h.

Chain of Histone deacetylase 4 (P56524 whole entry, the tested form may be a part): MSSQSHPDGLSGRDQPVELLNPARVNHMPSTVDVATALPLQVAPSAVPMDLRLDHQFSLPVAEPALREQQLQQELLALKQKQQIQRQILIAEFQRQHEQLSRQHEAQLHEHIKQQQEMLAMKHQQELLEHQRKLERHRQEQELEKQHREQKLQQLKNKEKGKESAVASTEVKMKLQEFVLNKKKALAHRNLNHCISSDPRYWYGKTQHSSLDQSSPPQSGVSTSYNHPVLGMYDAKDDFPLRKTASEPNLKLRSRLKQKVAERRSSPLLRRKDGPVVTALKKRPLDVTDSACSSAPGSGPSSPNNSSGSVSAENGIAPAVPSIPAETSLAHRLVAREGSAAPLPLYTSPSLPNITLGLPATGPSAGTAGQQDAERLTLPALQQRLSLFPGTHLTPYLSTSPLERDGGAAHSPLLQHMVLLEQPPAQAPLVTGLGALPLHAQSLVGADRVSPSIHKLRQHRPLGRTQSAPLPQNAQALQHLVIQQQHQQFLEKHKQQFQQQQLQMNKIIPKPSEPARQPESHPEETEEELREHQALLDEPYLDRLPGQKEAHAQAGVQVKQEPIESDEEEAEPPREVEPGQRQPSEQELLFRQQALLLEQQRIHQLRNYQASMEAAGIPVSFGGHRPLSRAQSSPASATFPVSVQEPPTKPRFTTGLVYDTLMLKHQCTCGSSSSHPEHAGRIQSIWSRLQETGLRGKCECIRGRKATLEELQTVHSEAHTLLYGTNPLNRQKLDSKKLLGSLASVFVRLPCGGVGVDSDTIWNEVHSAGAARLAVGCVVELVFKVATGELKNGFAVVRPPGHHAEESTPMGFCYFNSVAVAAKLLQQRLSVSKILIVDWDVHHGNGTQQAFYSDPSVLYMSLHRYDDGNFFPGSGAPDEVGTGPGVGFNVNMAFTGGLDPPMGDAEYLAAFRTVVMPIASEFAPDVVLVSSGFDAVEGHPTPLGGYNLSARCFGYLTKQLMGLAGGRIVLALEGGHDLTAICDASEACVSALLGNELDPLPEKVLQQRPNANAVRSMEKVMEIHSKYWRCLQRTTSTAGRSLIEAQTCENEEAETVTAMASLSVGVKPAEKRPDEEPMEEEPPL
Chain of Histone deacetylase 9 (Q9UKV0 whole entry): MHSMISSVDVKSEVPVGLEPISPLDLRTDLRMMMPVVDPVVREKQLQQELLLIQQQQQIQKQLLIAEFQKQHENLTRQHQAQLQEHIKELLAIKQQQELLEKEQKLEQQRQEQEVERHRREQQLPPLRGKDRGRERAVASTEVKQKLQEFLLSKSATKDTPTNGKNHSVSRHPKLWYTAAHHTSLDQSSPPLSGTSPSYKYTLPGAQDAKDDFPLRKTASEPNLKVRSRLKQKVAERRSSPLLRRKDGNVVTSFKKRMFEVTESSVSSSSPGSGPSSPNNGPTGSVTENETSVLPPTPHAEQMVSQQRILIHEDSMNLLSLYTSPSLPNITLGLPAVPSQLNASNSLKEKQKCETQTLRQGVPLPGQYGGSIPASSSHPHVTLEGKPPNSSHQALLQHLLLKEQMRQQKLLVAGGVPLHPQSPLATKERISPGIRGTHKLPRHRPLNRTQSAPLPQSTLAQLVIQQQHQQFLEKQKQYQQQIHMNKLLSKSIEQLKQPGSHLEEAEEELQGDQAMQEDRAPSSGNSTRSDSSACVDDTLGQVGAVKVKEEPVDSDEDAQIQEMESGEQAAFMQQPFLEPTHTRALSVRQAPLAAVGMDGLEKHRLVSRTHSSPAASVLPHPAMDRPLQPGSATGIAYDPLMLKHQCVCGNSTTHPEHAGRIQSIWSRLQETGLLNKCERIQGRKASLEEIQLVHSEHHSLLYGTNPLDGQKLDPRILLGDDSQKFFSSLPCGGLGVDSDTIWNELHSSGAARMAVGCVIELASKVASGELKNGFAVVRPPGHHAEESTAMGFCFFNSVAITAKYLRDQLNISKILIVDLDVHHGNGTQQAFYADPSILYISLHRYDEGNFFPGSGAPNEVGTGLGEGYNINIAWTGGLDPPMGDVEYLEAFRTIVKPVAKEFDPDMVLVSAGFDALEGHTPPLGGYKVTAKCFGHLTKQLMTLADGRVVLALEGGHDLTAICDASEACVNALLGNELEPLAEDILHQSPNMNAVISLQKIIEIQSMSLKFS
Chain of Histone deacetylase 2 (Q92769 whole entry, the tested form may be a part): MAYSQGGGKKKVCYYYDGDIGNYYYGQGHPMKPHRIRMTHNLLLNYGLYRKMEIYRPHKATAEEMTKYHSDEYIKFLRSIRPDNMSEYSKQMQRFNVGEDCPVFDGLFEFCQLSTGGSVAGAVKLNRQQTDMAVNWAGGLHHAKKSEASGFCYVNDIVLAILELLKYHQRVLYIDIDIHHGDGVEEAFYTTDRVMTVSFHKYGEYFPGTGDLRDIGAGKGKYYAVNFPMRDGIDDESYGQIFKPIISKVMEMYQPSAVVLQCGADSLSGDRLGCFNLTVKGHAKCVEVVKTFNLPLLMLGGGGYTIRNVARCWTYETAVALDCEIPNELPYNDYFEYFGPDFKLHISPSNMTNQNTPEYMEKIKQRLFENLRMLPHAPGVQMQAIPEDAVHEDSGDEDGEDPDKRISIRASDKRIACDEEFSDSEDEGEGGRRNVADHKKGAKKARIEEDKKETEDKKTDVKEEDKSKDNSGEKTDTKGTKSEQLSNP

`Cc1cc(C)c(CNC(=O)c2cc(-c3ccc(N4CCN(c5ncc(C(=O)NO)cn5)CC4)nc3)cc3c2cnn3C(C)C)c(=O)[nH]1`: the pIC50 on Histone deacetylase 2 was 6.11; on Histone deacetylase 8, 6.96; on Histone deacetylase 4, 5.25; in series [3], 6.15; on Histone deacetylase 9, 5.15. Also, the Activity in the series with MV4-11 [1] is given as 5.4%; in the series on MV4-11 [2] it was 0.1%; in the series on L02, “Toxic”.
